Source: patent publication US11807871B2, “Complex human gut microbiome cultured in an anaerobic human gut-on-a-chip” (President and Fellows of Harvard College, priority 2018, dated 2023)

Test system: primary human colon epithelial cells infected with EHEC
Test: Colon chip EHEC infection, epithelial lesion analysis
Assay type: cell-based
Details: metabolites added individually to a colon-chip
Experimental: Referring generally to FIGS. 18A-18C, microbiome metabolites recapitulate species-specific tolerance in Colon Chips. Human or mouse intestinal microbiome metabolites (e.g., isolated from specific strains of bacterial or fecal samples incubated in a bioreactor) were added to the intestinal channel of optically clear, human colon chips that are lined by primary human colon epithelial cells and directly opposed to a second parallel vascular microchannel in which HIMVECs are cultured. The two channels are separated by a thin, porous, ECM-coated membrane. Human intestinal epithelium was isolated from resections or endoscopic tissue biopsies. Endoscopic biopsies were collected from macroscopicallynormal (grossly unaffected) areas of the colon undergoing endoscopy for abdominal complaints. Organoids were grown from these tissue samples and seeded into the upper chamber of a two channel closed top microfluidic device. Human intestinal microvascular endothelial cells (HIMECs) were obtained from ScienCell (Cat #2900). The intestinal luminal channel medium was switched to 5% (vol vol-1) human (Hmm) or mouse (Mmm) gut microbiome metabolites isolated from PolyFermS bioreactors, diluted in phosphate-buffered saline (PBS) containing calcium and magnesium (final osmolarity=300 mOsm kg-1), filtered through a 0.2 μm filter (Corning), and stored at −80° C.
For example, on day 8 of a colon chip culture, the luminal culture medium is replaced with the same medium supplemented with human or murine microbiome metabolites (diluted 1:20 in a PBS-water based solution to 300 mOsm kg-1), while continuing to flow the same endothelial culture medium through the vascular channel. Perfusion is continued for 24 hours, followed by introduction of EHEC (1.7×105; serotype O157:H7) into the apical lumen in the same medium for 3 hours under static conditions to allow for bacterial cell attachment; medium flow is then re-established and continued for 24 additional hours.
Referring to colon chip infection, colon chips were cultured in the intestinal lumen channel of a chip in 5% (vol vol-1) human or mouse gut microbiome metabolites isolated from PolyFermS bioreactors, diluted in phosphate-buffered saline (PBS; final osmolarity=300 mOsm kg-1) or 24 hours. The following day, the intestinal channel was infected with 1.7×105. EHEC-GFP or EHEC A fliC (both generated from NR-3 E. coli/EDL931; serotype O157:H7), by adding the bacteria into the channel lumen in medium again with or without Hmm or Mmm. […]
For epithelial lesion analysis, one day post-infection, colon chips were washed with PBS and fixed with 4% paraformaldehyde in PBS for 2 hours. […] The area occupied by cells and the total area of the chip were measured using Fiji software.

| SMILES | epithelial injury during a EHEC infection of the chip |
| --- | --- |
| Cc1ccc(C(=O)O)cc1C [3,4-dimethylbenzoic acid] | enhance epithelial injury |
| Cc1ccc(C(=O)O)cc1 [4-methyl benzoic acid] | enhance epithelial injury |
| CCCCCCC(=O)O [heptanoic acid] | enhance epithelial injury |
| CCCCCC(=O)O [hexanoic acid] | enhance epithelial injury |
